These results are taken from patent publication US12491188B2, “Small molecule PARG inhibitors and methods of use thereof” (Board of Regents, The University of Texas System, priority 2019, dated 2025).

Data set [1] deals with PC3 cells. Briefly: PAR / γH2AX immuno-staining and high content imaging after IR. The format is cell-based, human. As to conditions: PC3, 2 h treatment, 7 Gy, 1 h recovery. Here is the method:
FIGS. 13a-g show PARGi sensitizes cells to ionizing radiation damage. (FIG. 13a) A low-resolution fixed intensity image-montage of the total cell numbers 3×(3×3) imaged per experimental group. A high level of PAR accumulation and γH2AX foci formation in cells exposed to PARGi. PC3 cells treated DMSO or PARG inhibitors (2120 or 2131) for 2 hours, irradiated 7Gy, recovered for 1 hour were fixed and immuno-stained with Poly(ADP)-Ribose (PAR, green), γH2AX (red) and Hoechst (blue) antibodies. Cells were analyzed with quantitative high content imaging. (FIGS. 13b-e) Quantitative analysis of PAR intensity (FIG. 13b), γH2AX intensities (FIG. 13c), the number of cells showing PAR/γH2AX co-localizations (FIG. 13d) and nucleus count for the total number of cells analyzed for each group (FIG. 13e). […] Cells were treated with 2131 for an hour followed by 7Gy ionizing radiation then allowed to recover for 2 h before total cell-lysate preparation and immunoblotting with anti-PAR (upper panel) followed by anti-PARG (middle) and Anti-PCNA (lower) as controls. […] Anti-PAR (green), Anti-γH2AX (red) and Hoechst 33342 (blue). Scale bar 25 μm.
Immuno-staining and imaging. PC3 cells were grown to 75% confluence in 24-well 25 μm film bottom Eppendorf black cell Imaging plates (0030741005), treated with either DMSO or designated inhibitors for 2 hours, irradiated 7 Gy X-ray and allowed to recover for an hour before fixing with 4% (wt/vol) paraformaldehyde, pH 8.0. All subsequent steps were performed at pH8.0. Cells were washed 6-7 times with PBS, permeabilized 0.5% Triton X-100 in PBS on ice for 20 min, blocked overnight with PBS/5% Goat serum/3% BSA/0.5% Triton X-100. Cells were incubated with primary antibody 1:250 dilution in PBS/5% BSA/0.5% Triton X-100 overnight at 4° C. Following 6× wash with PBS pH 8.0, cells were exposed to fluorescence labelled secondary antibody diluted 1:500 in PBS/5% BSA/0.5% Triton X-100 for 1 hour at room temperature. Following 6-7× PBS washes, cells were fixed again with 4% PFA at room temperature for 20 min. […]

Data set [2] concerns MRC-5 cells. As to conditions: SRB. Here is the method: Sulforhodamine B (SRB) Cytotoxicity Assay. […] Colorimetric or fluorescence analysis was performed in a FlexStation 3, using SoftMax Pro 7.0, Molecular Devices. Normalized graphs were generated with Prism 8 software, non-linear 4-parameter data fitting was performed for IC50 calculation.
For data set [3], the target named is PARG proteins in PC3 cells (Homo sapiens (Human), UniProt Q86W56). The data set is described as follows: Cellular thermal shift assay (CETSA), PARG. Type of data set: cell-based. The note with it: 10 μM, 2 h. How it is done: (§1) PC3 cells treated with 10 μM JA2131 or DMSO were temperature shocked as described in the Examples and the resulting non-aggregated proteins were analyzed with Anti-PARG or Anti-PCNA antibody. Anti-Histone H3 was used as loading control.
(§2) Cellular thermal shift assay (CETSA). CETSA was performed as described in Molina et al., 2013. Briefly, PC3 cells were treated with 10 μM JA2131 or an equivalent volume of DMSO for 2 h, washed three times with PBS and extracted for total cell lysate. 10% glycerol was added to the samples before subjecting to heat. Gradient thermal cycler (C1000 Touch, Bio-Rad) was used to heat samples at 42, 57, 66, 72, 77 and 85° C. for 3 min and chilled on ice for 5 min. Then, samples were centrifuged at 14,000 rpm for 20 min at 4° C. Supernatants were carefully removed and analyzed by Western blotting analysis.

Data set [4] has as its target PCNA in PC3 cells (Homo sapiens (Human), UniProt P12004). The data set is described as follows: Cellular thermal shift assay (CETSA), PCNA control. As to conditions: 10 μM, 2 h. Type of data set: cell-based. How it is done: as §1, §2
Data set [5] has as its system PARP inhibitor resistant SUM149PT cells. The data set is described as follows: PAR and γH2AX high content imaging in PARPi resistant cells. Type of data set: cell-based, human. As to conditions: 10 μM, 2 hours, 3 Gy IR; four PARPi resistant clones and wild type. How it is done:
PARPi resistant SUM149PT cells clone 6, 10, 11, 18 together with the wild type (WT) were treated with 10 μM JA2131 for 2 hours, irradiated 3Gy ionizing radiation and then fixed, immunofluorescence labelled for PAR and γH2AX. High content imaging showing specific accumulation of PAR and DNA damage induction observed with γH2AX signal in cells treated with PARGi. (Right) Immunoblotting of total cell-lysates of PARP1i resistant SUM149PT cells showing no change in the PARG (upper panel) and p53 (middle panel) protein expression level. Anti-actin was used as loading control (bottom panel).
PARG was evaluated as a therapeutic option for patients who become PARP1 inhibitor resistant. PARP1 inhibitor resistant SUM149PT triple negative breast cancer cell-lines were generated with 100 nM talazoparib for 5 constitutive days and then with 15-50 nM talazoparib until resistant cells grew into clones. The resulting resistant cell clones were propagated and expanded to generate PARP inhibitor resistant SUM149PT derivative cells that no longer responded to PARP1i treatment. It was then investigated whether the PARP resistant breast cancer cells would respond to the PARG inhibitors. Four PARPi resistant SUM149PT cell clones together with wild type cells were treated with JA2131. PAR accumulation and γH2AX foci formation were analyzed by high content imaging (FIG. 21).

Sequence of PCNA in PC3 cells (P12004 whole entry): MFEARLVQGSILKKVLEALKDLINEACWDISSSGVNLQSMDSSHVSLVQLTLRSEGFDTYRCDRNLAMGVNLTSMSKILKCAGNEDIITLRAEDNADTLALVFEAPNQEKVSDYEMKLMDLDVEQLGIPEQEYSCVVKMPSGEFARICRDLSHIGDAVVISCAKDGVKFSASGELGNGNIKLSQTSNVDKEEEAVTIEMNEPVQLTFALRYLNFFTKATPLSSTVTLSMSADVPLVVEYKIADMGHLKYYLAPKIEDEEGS
Sequence of PARG proteins in PC3 cells (Q86W56 whole entry): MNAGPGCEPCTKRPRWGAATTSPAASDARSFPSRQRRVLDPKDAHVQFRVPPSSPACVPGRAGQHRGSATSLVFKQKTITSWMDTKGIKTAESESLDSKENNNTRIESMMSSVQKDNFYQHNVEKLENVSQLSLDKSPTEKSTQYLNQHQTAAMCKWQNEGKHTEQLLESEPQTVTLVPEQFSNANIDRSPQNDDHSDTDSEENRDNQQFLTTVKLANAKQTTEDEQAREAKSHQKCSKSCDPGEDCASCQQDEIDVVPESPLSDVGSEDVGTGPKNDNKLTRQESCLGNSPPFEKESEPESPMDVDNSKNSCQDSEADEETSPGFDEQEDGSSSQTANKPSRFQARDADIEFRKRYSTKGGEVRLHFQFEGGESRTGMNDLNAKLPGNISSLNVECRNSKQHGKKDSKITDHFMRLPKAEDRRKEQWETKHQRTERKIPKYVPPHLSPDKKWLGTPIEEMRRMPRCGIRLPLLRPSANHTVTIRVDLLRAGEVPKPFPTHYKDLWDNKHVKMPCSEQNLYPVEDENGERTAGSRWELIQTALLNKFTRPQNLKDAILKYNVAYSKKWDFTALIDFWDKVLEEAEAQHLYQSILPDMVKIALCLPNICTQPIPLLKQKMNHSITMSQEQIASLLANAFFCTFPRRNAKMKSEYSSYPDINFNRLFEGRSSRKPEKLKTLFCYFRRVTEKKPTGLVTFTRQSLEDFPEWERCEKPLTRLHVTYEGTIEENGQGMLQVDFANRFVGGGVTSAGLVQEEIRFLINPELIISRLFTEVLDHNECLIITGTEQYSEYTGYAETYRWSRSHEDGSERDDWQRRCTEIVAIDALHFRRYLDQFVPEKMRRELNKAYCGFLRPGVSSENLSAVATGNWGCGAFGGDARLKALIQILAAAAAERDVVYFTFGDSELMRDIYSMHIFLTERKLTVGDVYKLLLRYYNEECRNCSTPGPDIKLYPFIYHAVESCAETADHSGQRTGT

Turning to `O=C1C(Cl)=C(Cl)C(Cl)(Cl)C(Cl)=C1Cl` [JA2131], in data set [1], the “cells showing colocalization of PAR and γH2AX foci” value is given as “at least 50%”; the “increase in PAR accumulation following IR in comparison to untreated cells” value stood at 20 fold; the “γH2AX staining and foci formation, PARGi-treated vs control cells” value is listed as over 10 fold. Besides, the “cytotoxic dose in MRC-5 cells relative to MDA-MB-231 cells” value in data set [2] is listed as “an order of magnitude higher”. Further, the “thermal stabilization of PARG proteins in cells” value in data set [3] was 9 °C. Also, the “change in thermal stability of PCNA control” value in data set [4] is “no significant change”. In data set [5], the “PAR accumulation and γH2AX staining” value is given as “increased PAR accumulation as well as γH2AX staining”.
